Assays:
A549 lung cancer cells = test: angiogenesis caused by tumorigenesis and tumor growth, A549 cells inoculated to CAM; assay type: in vivo, chicken; conditions: A549 cells 1.5×10^6 cells/CAM, 5 days after inoculation (FIG. 8)
Experimental: FIG. 8 illustrates an observation result of angiogenesis caused by tumorigenesis by inoculating A549 lung cancer cells to a CAM and a tumor growth inhibitory effect. Fertilized chicken eggs were cultured, and on the ninth day, a window was made in the same manner, and instead of a disc, cancer cells were mixed with matrigel at a ratio of 1:1 and treated with the compound 12 and inoculated in a density of 1.5×10^6 cells/CAM. After 5 days from the inoculation, a CAM portion, in which tumor was formed, was separated and washed with PBS to take images using a stereomicroscope (Stemi SV6 stereomicroscope, Carl Zeiss, Germany) and Image-Pro Plus software (Media Cybernetics; Silver Spring, Md., USA). Then, the number of branches was counted and the result data were analyzed.

HUVEC cells [1] = test: VEGF-induced growth inhibitory effect in HUVEC cells (MTT); assay type: cell-based, human; conditions: 24 hours, MTT (FIG. 3)
Experimental: HUVEC cells were cultured in a flask coated with 0.2% gelatin. Then, the HUVEC cells were cultured in an endothelial cell basal medium-2 (EBM-2, Clonetics, San Diego, Calif.). This EBM-2 contained fetal bovine serum (FBS), hydrocortisone, a human basic fibroblast growth factor (hFGF-B), a vascular endothelial growth factor (VEGF), a human recombinant insulin-like growth factor (R3-IGF-1), ascorbic acid, a human epidermal growth factor (hEGF), GA-1000, and heparin. The HUVEC cells were cultured for 4 to 5 days and injected into a 24-well plate in a density of 5×10^4 cells/well, and the media of the respective wells were set at 1 ml. In order to test the effect of the compound 12 in endothelial cells induced by the VEGF, the HUVEC cells were treated with a mixture of the VEGF and the compound 12 and cultured for 24 hours, and, then, 100 μl of MTT 3-(4,5-dimethylthiazol-2-yl)-2,5-diphenyl tetrazolium bromide; 5 g MTT/l in H2O) was added thereto and further cultured for 4 hours. Then, 200 μl of dimethylsulfoxide (DMSO) was added to the respective wells containing the corresponding cells and mixed with a pipette to dissolve the reduced MTT crystals. Relative cell survival rates were measured by scanning with a microplate reader (Molecular Devices, Menlo Park, Calif.) having 540 nm filter.

[2] = tested on: neovascularization induced by VEGF in chicken chorioallantoic membrane (CAM); test: chorioallantoic membrane (CAM) assay, VEGF-induced angiogenesis; assay type: in vivo
Experimental: To examine angiogenesis inhibitory effects in vivo, a chorioallantoic membrane (CAM) assay was carried out (Nguyen M et al., Microvascular Res., 47, pp 31-40, 1994).
Fertilized chicken eggs were cultured keeping the temperature at 37° C. and the relative humidity at 55%. On the tenth day, the first small hole was made in the region of air sac and the second hole was dug in the flat region of egg, where a window was to be made, using a hypodermic needle (Greencross Medical Science, Korea).
Each egg was deflated through the first hole in the region of the air sac so that the chorioallantoic membrane (CAM) was split from the egg shell. Subsequently, a window was made by cutting this region using a grinding wheel (Multipro 395JA, Dremel, Mexico).
Then, a whatman filter disc #1 (Whatman Inc. USA) was treated with 3 mg/ml of cortisone acetate and dried. The filter disc was drenched with a vascular endothelial growth factor (VEGF) in a concentration of 20 ng/CAM.
The filter disc was put on the vessels through the previously made window, and a compound 12 of Example was dissolved in dimethylsulfoxide (DMSO) and diluted with phosphate buffered saline (PBS) to treat by concentrations.
After 3 days from the drug treatment, the CAMs, on which the filter disc was placed, were separated and washed with PBS to take images using a stereomicroscope (Stemi SV6 stereomicroscope, Carl Zeiss, Germany) and Image-Pro Plus software (Media Cybernetics; Silver Spring, Md., USA). Then, the number of branches was counted and the result data were analyzed.

[3] = tested on: adult retinal pigment epithelium (ARPE)-19 cell line; test: ROS scavenging effect in ARPE-19 cell line (4-HNE or angiotensin II); assay type: cell-based, human
Experimental: (§1) In order to measure an ROS scavenging effect in HUVEC cells induced by a VEGF, 2′,7′-dichlorofluorescein diacetate (DCF-DA) was used. […] The HUVEC cells were injected into 8-well plates coated with 0.2% gelatin in a density of 1×10^5 cells/well and then cultured for 24 hours. A pre-treatment was carried out to the compound 12 for 3 hours and induced by the VEGF for 15 minutes and washed with PBS (pH 7.4) three times. Then, 10 μM DCF-DA was put into an EBM-2 and used to treat in darkroom for 30 minutes, and then washed again with the PBS three times. A fluorescence degree of the cells was measured using a fluorescence microscope. FIG. 5 provides photomicrographs taken at a magnification of 400 times of cells in order to check an ROS scavenging effect of the compound 12 of the present invention. […] FIG. 6 and FIG. 7 illustrate an observation result of the ROS scavenging effect of the compound 12 by treating the adult retinal pigment epithelium (ARPE)-19 cell line with 4-hydroxynonenal (4-HNE) or angiotensin II, which is a risk factor of macular degeneration. […] The 4-hydroxynonenal (4-HNE) or angiotensin II, which is a risk factor of macular degeneration caused cell damage by generation of ROS in ARPE cell and caused damage of a Bruch's membrane and angiogenesis, resulting in macular degeneration and loss of eyesight.

[4] = single oral dose toxicity experiment in mice; assay type: in vivo; conditions: single oral dose 0.5, 1 and 2 g/kg, 7 days
Experimental: The compound 12 was suspended in a 0.5% methyl cellulose solution and orally administered to male Balb/c mice with a single dose of 0.5 g/kg, 1 g/kg, and 2 g/kg. Then, the survival rate and weights of the mice were checked for 7 days.
After the administration, whether the animal was dead or not, clinical symptoms, changes in weight were observed, and a hematological test and a blood chemical test were carried out.

HUVEC cells [5] = test: ROS scavenging effect in VEGF-induced HUVEC cells (DCF-DA); assay type: cell-based, human; conditions: 3 hours pre-treatment, VEGF 15 minutes, compared with the VEGF (FIG. 5)
Experimental: as §1

HUVEC cells [6] = test: chemostatic migration / infiltration inhibitory effect in HUVEC cells; assay type: cell-based, human; conditions: 1, 3, 10 μM, 24 hours, matrigel/collagen coated filter (FIG. 4)
Experimental: In order to examine a chemostatic migration inhibitory effect of the compound of the present invention, the following in vitro experiment was carried out using HUVEC cells (Mi-Sung Kim et al., Cancer Research, 63, 5454-5461, 2003; Sang-Oh Yoon et al., The Journal of Biological Chemistry, 276, 20085-20092, 2001; Sonia Zorzet et al., The Journal of Pharmacology and Experimental Therapeutics, 295, 927-933, 2000). A culture plate applied hereto was a 24-well plate (Corning Costar, Cambridge, Mass.) including a polycarbonate filter having a plurality of pores of […] in size. The bottom side of the polycarbonate filter was coated with 20 l of type I collagen in a concentration of 0.5 mg/ml, and the top side thereof was coated with 20 l of matrigel (BD Bioscience, Bedford, Mass.) in a concentration of 1.5 mg/ml. Here, the lower region of the polycarbonate filter was filled with a medium including 2% FBS, and the HUVEC cells were inoculated into the upper region of the polycarbonate filter. In this case, the compound 12 was dissolved in dimethyl sulfoxide (DMSO) and diluted with phosphate buffered saline (PBS) by concentrations (1, 3, 10 μM). The HUVEC cells inoculated as such were cultured at 37° C. for 24 hours. Subsequently, the cells infiltrating the bottom side of the polycarbonate filter were fixed with methanol and stained with hematoxylin and eosin. […]

[7] = VEGF 20 ng/CAM + 1 μg/CAM, 3 days after treatment
[8] = VEGF 20 ng/CAM + 3 ng/CAM, 0.7 μM
[9] = VEGF 20 ng/CAM + 100 ng/CAM, 23 μM

## Cc1nc2c(c(C)c1O)CC(C)(CCC[C@H](C)CCC[C@H](C)CCCC(C)C)N2C (stereo partly shown) [Compound 12]
A549 lung cancer cells
  angiogenesis caused by tumorigenesis: inhibited angiogenesis caused by tumorigenesis
  tumor growth: inhibited tumor growth in a significantly low concentration as compared with α-tocopherol
HUVEC cells [1]
  VEGF-induced cell growth: reduced VEGF-induced cell growth in a concentration-dependent manner
[2]; CAM, VEGF 20 ng/CAM
  increase in neovascularization induced by the VEGF: decreased in a concentration-dependent manner
[2]; Gallus gallus, VEGF 20 ng/CAM + 0.004 ng/CAM, 1 nM, read-out: Inhibition rate (%)
  inhibition at 0.001 µM: 64 ± 12.5%
[2]; Gallus gallus, VEGF 20 ng/CAM + 0.04 ng/CAM, 10 nM, read-out: Inhibition rate (%)
  inhibition at 0.01 µM: 71.4 ± 6.4%
[2]; Gallus gallus, VEGF-induced angiogenesis, treated by concentrations (FIG. 2)
  IC50: 700 pM
[2]; VEGF 20 ng/CAM + 0.004 ng/CAM, 1 nM
  Number of branches/Main vessel: 28 ± 4.7
[2]; VEGF 20 ng/CAM + 0.04 ng/CAM, 10 nM
  Number of branches/Main vessel: 25.2 ± 2.4
[3]; ARPE-19 treated with 4-hydroxynonenal (4-HNE), compared with control group (FIG. 7)
  fluorescence degree of the cells (ROS): remarkably decreased as compared with the control group
[3]; ARPE-19 treated with angiotensin II, compared with control group (FIG. 6)
  fluorescence degree of the cells (ROS): remarkably decreased as compared with the control group
[4]
  clinical symptoms: any especially remarkable clinical symptoms were not observed
HUVEC cells [5]
  fluorescence degree of the cells (ROS, DCF-DA): remarkably decreased as compared with the VEGF
HUVEC cells [6]
  infiltration of the HUVEC cells: reduced infiltration of the HUVEC cells in a concentration-dependent manner

## CNC(=O)[C@H](Cc1ccccc1)NC(=O)[C@H](CC(C)C)[C@H](CSc1cccs1)C(=O)NO [Batimastat]
[2]; [7]
  Inhibition rate (%): 78.4 ± 7.4%
  Number of branches/Main vessel: 19.9 ± 2.87

## Cc1c(C)c2c(c(C)c1O)CC[C@@](C)(CCC[C@H](C)CCC[C@H](C)CCCC(C)C)O2 [α-tocopherol]
[2]; [8]
  Inhibition rate (%): 45.1 ± 9.3%
  Number of branches/Main vessel: 32.3 ± 3.5
[2]; [9]
  Inhibition rate (%): 64.4 ± 14.2%
  Number of branches/Main vessel: 24.3 ± 2.7

## CN(C)c1ccc(/C=C2\C(=O)Nc3ccccc32)cc1 [SU4312]
[2]; [7]
  Inhibition rate (%): 74.6 ± 12.1%
  Number of branches/Main vessel: 24 ± 4.6

From patent publication US20150031890A1, “PHARMACEUTICAL COMPOSITION COMPRISING BICYCLIC PYRIDINOL DERIVATIVES FOR PREVENTING OR TREATING DISEASES CAUSED BY ANGIOGENESIS” (Research Cooperation Foundation of Yeungnam University, priority 2011, published 2015)
